Source: PMC6068397 (ACS nano, 2018)
“Also recorded” adds a separate entry of the source.

Columns and labels:
native MOR [1] = conditions: optical assays; cited from earlier work
[2] = system: water-soluble μ-opioid receptor (wsMOR); experiment: wsMOR-functionalized graphene field-effect transistor; assay type: binding, human; conditions: GFET, 1 nM oxytocin solution
[3] = system: water-soluble μ-opioid receptor (wsMOR); assay type: binding, human; conditions: 1× PBS
native MOR [4] = conditions: cited from earlier work

Q: Which “KA, binding between native MOR and enkephalin” value (native MOR [1]) does the source give for [D-Ala^2, N-MePhe^4, Gly-ol]-enkephalin here?
A: Its value is 1.2−3.1 nM.

Q: For oxytocin, which “Level of nonspecific binding to wsMOR” value [2] is on record?
A: The value was “low level of nonspecific binding”.

Q: And the “Sensor response (shift of the Dirac voltage, ΔVD)” value ([2]; negative control)?
A: The value was 0.17 V.

Q: What about the “Response of the biosensor (selectivity, negative control)” value ([3]; concentrations below 1 μM, graphene microelectrode) of the same substance?
A: Its value is “essentially negligible”.

Q: And the “Specific binding to native MOR” value (native MOR [4])?
A: The value was “known not to bind specifically to native MOR”.

Q: What does the source list for β-endorphin?
A: Ratio of amplitude A, β-endorphin to enkephalin ([3]; larger than the amplitude found for enkephalin): ~ 1.6 times; Limit of detection ([3]; physiological ionic strength): picomolar range; also recorded: picomolar level
